Reference: patent US20240174744A1, “METHODS OF TREATMENT USING PROTEIN BINDERS TO IRHOM2 EPITOPES” (SCIRHOM GMBH, priority 2021, published 2024)

System: LPS-induced release of TNFα from THP-1 cells
Assay: ELISA-based TNFα release assay, LPS-stimulated THP-1 cells
Type: cell-based, human
Settings: 10 μg/ml, Batimastat 10 μM, LPS 50 ng/ml, 2 hours
Method: In the following study, ELISA-based TNFα release assays were performed to verify the inhibitory effects of the purified antibodies of the present disclosure on LPS-induced release of endogenous TNFα from human THP-1 monocytic cells.
In brief, on day 1, Nunc black MaxiSorp® 96-well plates (Thermo Fisher Scientific, USA) were coated overnight with 100 μl per well of mouse anti-human TNFα capture antibody (provided as part of the DuoSet ELISA kit) at 4 μg/ml TBS at 4° C. On day 2, the capture antibody solution was removed and MaxiSorp® plates were blocked with 300 μl per well of TBS, 1% BSA at room temperature for 3 hours. […] Using an infinite M1000 (Tecan Group, Switzerland) microplate reader, the fluorescence of each well was collected at an excitation wavelength of 435 nm and an emission wavelength of 555 nm. […]

CNC(=O)[C@H](Cc1ccccc1)NC(=O)[C@H](CC(C)C)[C@H](CSc1cccs1)C(=O)NO [Batimastat]
inhibition of LPS-induced release of TNFα from THP-1 cells (antibodies purified from hybridoma supernatants): 96.2% | inhibition of LPS-induced release of TNFα from THP-1 cells (recombinant antibodies (Expi293F)): 96.2%
